Data from patent publication US12281329B2, “Compositions and methods for immune cell modulation in adoptive immunotherapies” (Fate Therapeutics, Inc., priority 2016, dated 2025).

Tests used:
K562 cells = test: NK cell cytotoxicity assay, K562 target cells; format: cell-based; settings: 4 hours; NK cells overnight 10 ng/mL IL-15 only or 7 day IL-15 + 5 μM CHIR99021
Experimental: NK Cell Cytotoxicity Assay: Cytotoxicity was determined using a flow cytometry based method based on a previously published method (Kim, et al. J Immunol Methods. 2007 Aug. 31; 325(1-2): 51-66). NK cells were co-cultured with e450-proliferation dye-labelled targets for 4 hours. CellEvent™ Caspase-3/7 Green Flow Cytometry Assay Kit (Lifer Technologies) was used to assay for cell death among target cells, and samples were read on a BD LSRFortessa cytometer. Killing of SKOV-3 targets was quantified using the Incucyte Zoom instrument. SKOV-3 cells were transiently transduced with NucLight-Red BacMam reagent (Essen Biosciences) and co-cultured with the indicated NK cell populations for 74 hours, with images taken on two hour intervals. Caspase 3/7 activity was monitored to indicate target cells undergoing apoptosis using the CellEvent™ Caspase-3/7 Green Detection Reagent. The number of target cells was normalized to SKOV-3 cells cultured alone, and targets undergoing apoptosis were quantified based on caspase 3/7 activity.
The ability of GSK3 inhibition to enhance cytotoxicity of NK cells isolated directly from donors was assessed using in vitro killing assays. […] depleted PBMC population was treated overnight with 10 ng/mL IL-15 only (primed), or a 7 day culture combination of 10 ng/mL IL-15 and 5 μM CHIR99021. The target cells for the killing assays included K562 cells, CD20+ Raji cells, HER2+ SKOV3 cells and HER2+A549 cells. The E:T (Effector:Target) ratio applied to each assay ranged from 0.1, 0.5, 1, 5 to 10. After the target cells were incubated with the differently treated NK cells for 4 hours, the respective percentage of specific killing (target cell lysis) was calculated. […] Raji cells are less prone to NK mediated cytotoxicity.
The ability of STING agonist to enhance cytotoxicity of GSK3i multiday modulated NK cells was assessed using in vitro killing assays. […]

NK cells = test: Sorted NK cell populations (CD57/NKG2C) cultured with CHIR99021: maturation; format: cell-based, human; settings: 7 day
Experimental: NK Cell Sorting: CD3/CD19 depleted PBMC were labelled with 10 uM e450 proliferation dye (eBioscience) and stained with FITC-conjugated anti-CD57, PE-Conjugated anti-NKG2C, APC-conjugated anti-CD56, and Percp-Cy5.5-conjugated anti-CD3 antibodies (BD Biosciences and R&D Systems). Four populations of CD3-CD56+NK cells were sorted according to the expression of CD57 and NKG2C; CD57+NKG2C−, CD57+NKG2C+, CD57-NKG2C+, and CD57-NKG2C−. Sorted NK cell populations were cultured at a 2:1 ratio of NK:monocytes in BO media with 10 ng/ml IL-15 and CHIR99021 or vehicle control. Stained but unsorted cells were cultured in parallel as a control.
CD3/CD19 depleted PBMC were labelled with e450 proliferation dye, and CD56+CD3− NK cells were sorted in bulk or were sorted into 4 populations based on expression of CD57 and NKG2C expression (FIG. 5A). Total, unfractionated, NK cells were cultured alongside CD57+NKG2C− (Q1), CD57+NKG2C+(Q2), CD57−NKG2C+(Q3), CD57−NKG2C− (Q4) sorted NK cells with either (1) cytokine (10 ng/ml IL15) and 5 μM CHIR99021, or (2) cytokine only with vehicle control (for example, DMSO only) (FIG. 5B) with autologous CD14+ monocytes in a 1:1 ratio of NK cells:monocytes. After the 7 day culture period, cultures of each sorted population were stained for flow cytometry and analyzed for proliferation and cell surface marker expression. […]

HER2+A549 cells = test: NK cell Herceptin ADCC killing of A549 cells; format: cell-based, human; settings: NK cells cultured with GSK3i for 7 days

With `Cc1c[nH]c(-c2cnc(NCCNc3ccc(C#N)cn3)nc2-c2ccc(Cl)cc2Cl)n1` [CHIR99021] the “E:T50 (E:T ratio when there is 50% of target cell lysis), K562 killing assay” value (K562 cells) was “about 1”, the “expression of CD57 in Q3 and Q4 sorted cells (CD57− before culturing)” value (NK cells; 10 ng/ml IL15 + 5 μM CHIR99021) was “upregulated” and the “CD57 expression in the total NK cells” value (NK cells; 10 ng/ml IL15 + 5 μM CHIR99021, unsorted) was “significant increase”. The “ADCC-mediated killing of A549 cells (rate and efficiency)” value (HER2+A549 cells) was “enhanced”.
